Experimental data reported in patent US10675306B2, “Adrenomedullin therapy to improve fetal implantation” (The University of North Carolina at Chapel Hill, priority 2015, dated 2020).
Entries after “also recorded” stand apart in the source; their conditions may differ. Positions of bridges follow the written chain, without caps; N, C: chain ends. No end group written: not given here.

Experiments:
Type in all cases: in vivo
BalbC mice = test: Blastocyst transfer after intrauterine injection: number and spacing of viable implantation sites; details: AM 150 pmol into lumen of each uterine horn, day 2.5 of pseudopregnancy, evaluated three days post-transfer, vs vehicle
Source text: A, Images of e6.5 embryos within uteri treated with vehicle, AM, or AM+AM(24-50) prior to transfer of 8 blastocysts per horn. Arrowheads indicate viable implantation sites as determined by uptake of Evans blue dye. Scale bar, 1 cm. B, Quantitation of viable implant sites per horn. ns, not significant. *p<0.05, Mann-Whitney test. C, Illustration of quantitation method for spacing of e6.5 embryos within uterine horns. SD, standard deviation. D, Quantitation of spacing using method depicted in (C). *p<0.05, unpaired t test.
It was hypothesized that administration of AM, an endocrine factor critical for a healthy pregnancy, to female mice would improve uterine receptivity and implantation rates. […] Dams were euthanized three days later, and the number and spacing of the viable implantation sites were evaluated.
Using this conceptually simple but elegant in vivo experiment, it was concluded that delivery of AM directly into the uterine lumen prior to the establishment of pregnancy promotes blastocyst implantation. This conclusion was arrived at by quantitating the number and spacing of viable implantation sites in uterine horns that were treated with either vehicle or AM prior to blastocyst transfer.

wild-type mice [1] = test: Pinopode formation and size in uteri treated for 30 min (scanning electron micrographs); details: AM 150 pmol, vs vehicle
Description: A, Scanning electron micrographs of pinopodes in wild type uteri treated with vehicle, AM, or AM+AM(24-50) for 30 minutes. Scale bars, 5 μm. B-D, Quantitation of pinopodes per field (B), size (C), and percent area of field (D). n=3 animals, n>4 fields per animal. ***p<0.001, unpaired t test.
The effect of AM on pinopode formation and size was studied. Wild-type mice were treated with vehicle, AM (150 pmol), or AM (150 pmol)+AM(24-50) (2 nmol) for 30 min and the amount and size of pinopodes was quantitated (FIGS. 3A-3D).

wild-type mice [2] = test: Rate of pinopode formation throughout a treatment time course; details: AM 150 pmol, days 2.5-3.5 of pseudopregnancy, vs vehicle
Description: A, Scanning electron micrographs of vehicle- and AM-treated uteri throughout treatment time course. Scale bars, 1 μm. B, Quantitation of pinopodes per field throughout treatment time course. *p<0.05 at indicated time point, unpaired t test.
Further studies were performed to measure the effect of AM (150 pmol) on the rate of pinopode formation. The number of pinopodes was quantitated throughout a time course of AM treatment in wild-type mice (FIGS. 4A-4B).

adrenomedullin (YRQSMNNFGGLRSFGCRFGTCTVQKLAHQIYQFTDKDKDNVAPRSKISPQGY; disulfide 16-21 (inferred); ends not checked; listed as Homo sapiens) [AM, peptide vasodilator]
number of viable implantation sites per horn (BalbC mice; 8 blastocysts per horn 5-10 min later): improves implantation success; also recorded: significantly more embryo implantation sites; also recorded: significantly more viable implantation sites
spacing of viable implantation sites (BalbC mice; 8 blastocysts per horn): improves implantation success and spacing; also recorded: evenly distributed throughout the length of the horn; also recorded: more evenly distributed throughout the length of the horn
pinopode formation (pinopodes per field) (wild-type mice [1]): promotes pinopode formation
pinopode size (wild-type mice [1]): promotes pinopode formation and size
rate of pinopode formation (pinopodes per field over time course) (wild-type mice [2]): accelerates pinopode formation
